PMC11643494, “Structure–Activity Relationship Studies in a Series of 2-Aryloxy-N-(pyrimidin-5-yl)acetamide Inhibitors of SLACK Potassium Channels” (Molecules, 2024)

Target: T1, Human A934T SLACK (Homo sapiens, UniProt Q5JUK3, A915T)
T1 construct: host or cells: CHO-K1
T1 sequence (Q5JUK3 1-1235 isoform Q5JUK3-3 A934T): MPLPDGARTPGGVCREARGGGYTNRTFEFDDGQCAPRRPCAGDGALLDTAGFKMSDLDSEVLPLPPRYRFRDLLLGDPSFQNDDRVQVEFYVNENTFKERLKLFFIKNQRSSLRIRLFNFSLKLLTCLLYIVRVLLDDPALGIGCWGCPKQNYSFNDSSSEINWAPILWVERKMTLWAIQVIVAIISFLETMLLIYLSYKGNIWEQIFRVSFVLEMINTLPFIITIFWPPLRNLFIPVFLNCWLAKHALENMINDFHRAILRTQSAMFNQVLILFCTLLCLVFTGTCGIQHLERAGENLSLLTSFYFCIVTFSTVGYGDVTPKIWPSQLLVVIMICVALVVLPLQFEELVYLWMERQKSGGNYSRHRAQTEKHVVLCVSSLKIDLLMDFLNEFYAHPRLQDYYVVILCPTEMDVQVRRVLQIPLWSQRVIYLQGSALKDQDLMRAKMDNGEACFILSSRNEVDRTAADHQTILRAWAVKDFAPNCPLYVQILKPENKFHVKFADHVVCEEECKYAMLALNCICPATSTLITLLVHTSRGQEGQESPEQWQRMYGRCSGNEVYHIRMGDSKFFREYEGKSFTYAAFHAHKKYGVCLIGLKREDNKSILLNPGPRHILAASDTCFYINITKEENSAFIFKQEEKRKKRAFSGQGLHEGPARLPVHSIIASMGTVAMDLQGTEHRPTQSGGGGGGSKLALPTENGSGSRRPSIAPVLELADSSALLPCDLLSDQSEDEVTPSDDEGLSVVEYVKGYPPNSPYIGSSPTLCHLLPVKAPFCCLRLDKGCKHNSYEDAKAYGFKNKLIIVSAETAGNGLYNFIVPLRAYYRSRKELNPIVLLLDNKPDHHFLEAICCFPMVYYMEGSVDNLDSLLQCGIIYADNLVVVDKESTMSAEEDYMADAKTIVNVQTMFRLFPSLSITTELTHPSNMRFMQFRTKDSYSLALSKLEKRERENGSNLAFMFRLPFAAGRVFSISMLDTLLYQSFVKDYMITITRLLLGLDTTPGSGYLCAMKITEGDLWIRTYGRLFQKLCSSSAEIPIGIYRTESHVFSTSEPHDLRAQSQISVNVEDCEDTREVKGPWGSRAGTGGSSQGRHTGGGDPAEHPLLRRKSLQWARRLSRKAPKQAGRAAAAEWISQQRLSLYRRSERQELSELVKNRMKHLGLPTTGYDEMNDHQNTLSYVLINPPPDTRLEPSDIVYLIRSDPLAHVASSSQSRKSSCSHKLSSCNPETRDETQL
Assay: Whole-cell APC in CHO-K1 cells stably expressing human A934T SLACK
Assay type: cell-based
Conditions: for IC50: APC, CHO-K1 cells; for Imax: maximum inhibition at 30 µM standardized to VU0606170 (set at 100%)
Source text: Finally, we chose to screen the same two compounds versus mouse SLACK and two clinically relevant GOF SLACK mutants in APC assays utilizing CHO-K1 cells stably expressing these targets (Table 7). Screening versus the mouse homolog was deemed important for evaluating the potential of the series to ultimately lead to a useful in vivo tool via further optimization.
Stably transfected monoclonal HEK293 cell lines expressing SLICK, Maxi-K α1/β3, Maxi-K α1/β4, CaV3.2, GIRK 1/2, KV2.1, KV7.2, NaV1.7, and TASK-1 were generated as previously described. Stably transfected monoclonal HEK293 cell lines expressing hERG were generated as previously described. CHO-K1 cells expressing human SLACK and disease-associated human SLACK mutations, G288S and A934T, were generated by transfecting a PiggyBac TRE mammalian expression vector (VectorBuilder, Chicago, IL, USA) containing KCNT1. FuGENE 6 (Promega, Madison, WI, USA) transfection reagent and protocol, together with Opti-MEM (Thermo Fisher Scientific, Waltham, MA, USA), were utilized according to the manufacturer’s instructions.
Automated patch clamp recording was performed with a SyncroPatch 768 PE system (Nanion, Munich, Germany) as previously described. Whole-cell recordings were performed at room temperature. Cells were harvested by first washing with PBS without Mg^2+ or Ca^2+ (Gibco, Billings, MT, USA) to remove cell culture medium, followed by dissociation with TryPLE (Gibco, Billings, MT, USA). Cells were then resuspended and diluted to 200,000 cells/mL in external solution. External solution contained 105 mM NaCl, 4 mM KCl, 1 mM MgCl2, 5 mM CaCl2, 10 mM HEPES, 40 mM N-Methyl-D-glucamine chloride, titrated to pH 7.4 with NaOH and osmolarity of 300 mOsm/kg; internal solution contained 70 mM NaCl, 70 mM KF, 10 mM KCl, 5 mM EGTA, 5mM HEPES, titrated to a pH 7.2 with KOH and osmolarity of 295 mOsm/kg.
The APC protocol was set as following: Cells were held at […] −80 mV for 100 ms, then a ramp protocol was performed from −100 mV to 80 mV at 0.4 mV/ms, hold the cell at −80 mV for another 100 ms, then steps were performed at −20 mV, 0 mV, +20 mV, +40 mV, and +60 mV for 100 ms of each step. Whole-cell currents were measured at 0 mV and normalized to current after external buffer addition.

| Compound | IC50 [nM] | Imax [%] |
| --- | --- | --- |
| CC(C)(Oc1ccc(Cl)cc1)C(=O)Nc1cnc(Oc2c(F)cccc2F)nc1 [Analog 40] | 410 | 96 |
| CN(c1ccc(C#N)cc1)c1ncc(NC(=O)C(C)(C)Oc2ccc(Cl)cc2)cn1 [Analog 66] | 1200 | 84 |
